From article PMC6706640, “Systematic mapping of protein‐metabolite interactions in central metabolism of Escherichia coli” (Molecular Systems Biology, 2019)

How the values were obtained:
[1] = target: T1, 6-phosphofructokinase I (PfkA) (Escherichia coli, UniProt P0A796); assay: ligand-detected T1rho 1H NMR; type: binding; settings: 15 uM monomer, 200 uM metabolite in mix, pH 7.5, 298 K, 5 mM MgCl2
T1 construct: full-length His-tagged protein from ASKA library clone (E. coli K-12 ORF collection)
T1 sequence (P0A796 1-320): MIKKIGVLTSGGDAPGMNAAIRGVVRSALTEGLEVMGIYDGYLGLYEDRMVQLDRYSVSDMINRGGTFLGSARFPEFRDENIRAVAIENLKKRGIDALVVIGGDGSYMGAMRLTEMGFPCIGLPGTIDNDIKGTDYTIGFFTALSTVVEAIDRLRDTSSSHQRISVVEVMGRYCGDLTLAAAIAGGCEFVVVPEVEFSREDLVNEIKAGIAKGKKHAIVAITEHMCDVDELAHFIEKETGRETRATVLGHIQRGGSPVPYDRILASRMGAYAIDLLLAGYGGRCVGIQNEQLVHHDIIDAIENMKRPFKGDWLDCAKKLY

[2] = target: T2, NADP+-dependent glucose-6-phosphate dehydrogenase (Zwf) (Escherichia coli, UniProt P0AC53); assay: ligand-detected T1rho 1H NMR; inhibition checked by NADPH formation assay; type: biochemical; settings: NMR: 15 uM monomer, 200 uM metabolite in mix, pH 7.5, 298 K, 5 mM MgCl2; activity: 2 and 10 mM GTP, 2 mM G6P, 1 mM NADP+, 30 C
T2 construct: full-length His-tagged protein from ASKA library clone (E. coli K-12 ORF collection)

enolase (Eno) = target: T3, enolase (Eno) (Escherichia coli, UniProt P0A6P9); assay: ligand-detected T1rho 1H NMR; type: binding; settings: 15 uM monomer, 200 uM metabolite in mix, pH 7.5, 298 K, 5 mM MgCl2
T3 construct: full-length His-tagged protein from ASKA library clone (E. coli K-12 ORF collection)
T3 sequence (P0A6P9 2-432): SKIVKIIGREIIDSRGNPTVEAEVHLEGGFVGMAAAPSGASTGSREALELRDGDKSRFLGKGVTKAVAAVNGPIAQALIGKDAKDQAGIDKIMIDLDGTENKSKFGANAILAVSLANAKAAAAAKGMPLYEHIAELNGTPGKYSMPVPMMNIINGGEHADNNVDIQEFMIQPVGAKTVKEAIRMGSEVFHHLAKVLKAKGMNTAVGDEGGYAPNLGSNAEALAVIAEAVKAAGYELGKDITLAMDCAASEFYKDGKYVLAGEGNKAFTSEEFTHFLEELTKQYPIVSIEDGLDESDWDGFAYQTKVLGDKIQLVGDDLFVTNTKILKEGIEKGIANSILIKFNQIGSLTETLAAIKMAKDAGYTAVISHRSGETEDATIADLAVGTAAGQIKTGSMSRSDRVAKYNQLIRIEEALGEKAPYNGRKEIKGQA

T2 sequence (P0AC53 whole entry): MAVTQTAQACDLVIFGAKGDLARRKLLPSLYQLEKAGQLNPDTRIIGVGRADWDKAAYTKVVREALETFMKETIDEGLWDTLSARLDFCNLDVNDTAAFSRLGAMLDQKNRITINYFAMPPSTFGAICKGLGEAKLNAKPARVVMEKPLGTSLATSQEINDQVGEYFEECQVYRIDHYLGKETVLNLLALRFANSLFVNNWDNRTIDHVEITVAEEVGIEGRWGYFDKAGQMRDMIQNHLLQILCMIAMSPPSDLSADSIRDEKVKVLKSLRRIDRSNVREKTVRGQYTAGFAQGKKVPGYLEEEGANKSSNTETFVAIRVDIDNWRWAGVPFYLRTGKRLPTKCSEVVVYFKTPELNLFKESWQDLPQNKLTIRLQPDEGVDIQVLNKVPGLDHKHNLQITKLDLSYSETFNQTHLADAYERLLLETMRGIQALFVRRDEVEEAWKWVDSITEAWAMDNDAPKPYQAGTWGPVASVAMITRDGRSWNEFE

**Q.** With `Nc1ncnc2c1ncn2[C@@H]1O[C@H](COP(=O)(O)O)[C@@H](O)[C@H]1O` [AMP] as the molecule, how does the ΔRF [1] read?
**A.** two of which were detected in both datasets (Eno–PEP and PfkA–AMP)

**Q.** With `Nc1nc2c(ncn2[C@@H]2O[C@H](COP(=O)(O)OP(=O)(O)OP(=O)(O)O)[C@@H](O)[C@H]2O)c(=O)[nH]1` [GTP] as the molecule, how does the ΔRF [2] read?
**A.** ATP and GTP indeed inhibited Zwf even at physiological concentrations of MgCl2

**Q.** `C=C(OP(=O)(O)O)C(=O)O` [phosphoenolpyruvate] was tested. Which ΔRF (enolase (Eno)) did it give?
**A.** two of which were detected in both datasets (Eno–PEP and PfkA–AMP)
